Source: US20260262643A1, “HERBICIDAL BENZOXAZINES” (FMC CORPORATION, priority 2022, published 2026)

Tests used:
wheat [1] = experiment: Test A postemergence; assay type: in vivo, Triticum aestivum; conditions: postemergence, 10 days
In short: (§1)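 Greenhouse pot test, 10 days. Compound (non-phytotoxic solvent, surfactant) sprayed on soil at seeding or on seedlings at one- to two-leaf stage. Visual injury rated 0–100 against untreated plants.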

kochia [2] = experiment: Test A postemergence; assay type: in vivo, Bassia scoparia; conditions: postemergence, 10 days
In short: as §1

horseweed = experiment: Test A postemergence; assay type: in vivo, Erigeron canadensis; conditions: postemergence, 10 days
In short: as §1

foxtail, giant [3] = experiment: Test A preemergence; assay type: in vivo, Setaria faberi
In short: as §1

corn [4] = experiment: Test A preemergence; assay type: in vivo, Zea mays
In short: as §1

ducksalad = experiment: Test B flooded paddy test; assay type: in vivo, Heteranthera limosa; conditions: 250 g ai/ha, Flood, 13 days, 0 to 100 scale (0 no effect, 100 complete control)
In short: (§2)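 Compound is introduced into paddy water covering soil by 3 cm, treating plants that have reached two leaves. Pots are kept flooded at that depth under greenhouse conditions. Assessment at 13 days gives a 0–100 visual control score.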

soybean [5] = experiment: Test A postemergence; assay type: in vivo, Glycine max; conditions: postemergence, 10 days
In short: as §1

ragweed [6] = experiment: Test A preemergence; assay type: in vivo, Ambrosia artemisiifolia
In short: as §1

blackgrass [7] = experiment: Test A preemergence; assay type: in vivo, Alopecurus myosuroides
In short: as §1

blackgrass [8] = experiment: Test A postemergence; assay type: in vivo, Alopecurus myosuroides; conditions: postemergence, 10 days
In short: as §1

ryegrass, Italian [9] = experiment: Test A postemergence; assay type: in vivo, Lolium multiflorum; conditions: postemergence, 10 days
In short: as §1

oat, wild [10] = experiment: Test A postemergence; assay type: in vivo, Avena fatua; conditions: postemergence, 10 days
In short: as §1

corn [11] = experiment: Test A postemergence; assay type: in vivo, Zea mays; conditions: postemergence, 10 days
In short: as §1

foxtail, giant [12] = experiment: Test A postemergence; assay type: in vivo, Setaria faberi; conditions: postemergence, 10 days
In short: as §1

barnyardgrass = experiment: Test B flooded paddy test; assay type: in vivo, Echinochloa crus-galli; conditions: 250 g ai/ha, Flood, 13 days, 0 to 100 scale (0 no effect, 100 complete control)
In short: as §2

wheat [13] = experiment: Test A preemergence; assay type: in vivo, Triticum aestivum
In short: as §1

pigweed, palmer [14] = experiment: Test A preemergence; assay type: in vivo, Amaranthus palmeri
In short: as §1

kochia [15] = experiment: Test A preemergence; assay type: in vivo, Bassia scoparia
In short: as §1

goosegrass [16] = experiment: Test A postemergence; assay type: in vivo, Eleusine indica; conditions: postemergence, 10 days
In short: as §1

sedge, umbrella = experiment: Test B flooded paddy test; assay type: in vivo, Cyperus difformis; conditions: 250 g ai/ha, Flood, 13 days, 0 to 100 scale (0 no effect, 100 complete control)
In short: as §2

oat, wild [17] = experiment: Test A preemergence; assay type: in vivo, Avena fatua
In short: as §1

ryegrass, Italian [18] = experiment: Test A preemergence; assay type: in vivo, Lolium multiflorum
In short: as §1

pigweed, palmer [19] = experiment: Test A postemergence; assay type: in vivo, Amaranthus palmeri; conditions: postemergence, 10 days
In short: as §1

ragweed [20] = experiment: Test A postemergence; assay type: in vivo, Ambrosia artemisiifolia; conditions: postemergence, 10 days
In short: as §1

galium = experiment: Test A postemergence; assay type: in vivo, Galium aparine; conditions: postemergence, 10 days
In short: as §1

rice = experiment: Test B flooded paddy test; assay type: in vivo, Oryza sativa; conditions: 250 g ai/ha, Flood, 13 days, 0 to 100 scale (0 no effect, 100 complete control)
In short: as §2

goosegrass [21] = experiment: Test A preemergence; assay type: in vivo, Eleusine indica
In short: as §1

soybean [22] = experiment: Test A preemergence; assay type: in vivo, Glycine max
In short: as §1

[23] = 125 g ai/ha, 0 to 100 scale, 0 no effect, 100 complete control
[24] = 500 g ai/ha, visual injury, 0 to 100 scale (0 no effect, 100 complete control)
[25] = 125 g ai/ha, visual injury after 10 days, 0 to 100 scale, 0 is no effect, 100 is complete control
[26] = 500 g ai/ha, 0 to 100 scale (0 no effect, 100 complete control), 10 days

## CCc1ncn(-c2ccc(CC)c(C(=O)N3C[C@H](C)Oc4c(Cl)cccc43)c2)n1 [Compound 95]
Wheat [1]; [23]
  Wheat plant response rating: 40
Wheat [1]; [24]
  Plant response rating, Wheat: 80
Kochia [2]; [23]
  Kochia plant response rating: 80
Kochia [2]; [24]
  Plant response rating, Kochia: 90
horseweed; [23]
  Horseweed plant response rating: 0
horseweed; [24]
  Plant response rating, Horseweed: 30
foxtail, giant [3]; [25]
  Plant response rating, Foxtail, Giant: 100
foxtail, giant [3]; [26]
  Plant response rating, Foxtail, Giant: 100
Corn [4]; [25]
  Plant response rating, Corn: 60
Corn [4]; [26]
  Plant response rating, Corn: 100
ducksalad
  Plant response rating, Ducksalad: 95
Soybean [5]; [23]
  Soybean plant response rating: 100
Soybean [5]; [24]
  Plant response rating, Soybean: 100
Ragweed [6]; [25]
  Plant response rating, Ragweed: 0
Ragweed [6]; [26]
  Plant response rating, Ragweed: 70
Blackgrass [7]; [25]
  Plant response rating, Blackgrass: 70
Blackgrass [7]; [26]
  Plant response rating, Blackgrass: 80
Blackgrass [8]; [23]
  Blackgrass plant response rating: 80
Blackgrass [8]; [24]
  Plant response rating, Blackgrass: 90
ryegrass, Italian [9]; [23]
  Ryegrass, Italian plant response rating: 60
ryegrass, Italian [9]; [24]
  Plant response rating, Ryegrass, Italian: 100
oat, wild [10]; [23]
  Oat, Wild plant response rating: 70
oat, wild [10]; [24]
  Plant response rating, Oat, Wild: 80
Corn [11]; [23]
  Corn plant response rating: 60
Corn [11]; [24]
  Plant response rating, Corn: 90
foxtail, giant [12]; [23]
  Foxtail, Giant plant response rating: 90
foxtail, giant [12]; [24]
  Plant response rating, Foxtail, Giant: 90
barnyardgrass
  Plant response rating, Barnyardgrass: 65
Wheat [13]; [25]
  Plant response rating, Wheat: 90
Wheat [13]; [26]
  Plant response rating, Wheat: 90
pigweed, palmer [14]; [25]
  Plant response rating, Pigweed, Palmer: 90
pigweed, palmer [14]; [26]
  Plant response rating, Pigweed, Palmer: 100
Kochia [15]; [25]
  Plant response rating, Kochia: 60
Kochia [15]; [26]
  Plant response rating, Kochia: 100
Goosegrass [16]; [23]
  Goosegrass plant response rating: 80
Goosegrass [16]; [24]
  Plant response rating, Goosegrass: 90
sedge, umbrella
  Plant response rating, Sedge, Umbrella: 98
oat, wild [17]; [25]
  Plant response rating, Oat, Wild: 80
oat, wild [17]; [26]
  Plant response rating, Oat, Wild: 90
ryegrass, Italian [18]; [25]
  Plant response rating, Ryegrass, Italian: 100
ryegrass, Italian [18]; [26]
  Plant response rating, Ryegrass, Italian: 100
pigweed, palmer [19]; [23]
  Pigweed, Palmer plant response rating: 50
pigweed, palmer [19]; [24]
  Plant response rating, Pigweed, Palmer: 90
Ragweed [20]; [23]
  Ragweed plant response rating: 0
Ragweed [20]; [24]
  Plant response rating, Ragweed: 50
galium; [23]
  Galium plant response rating: 100
galium; [24]
  Plant response rating, Galium: 100
rice
  Plant response rating, Rice: 0
Goosegrass [21]; [25]
  Plant response rating, Goosegrass: 100
Goosegrass [21]; [26]
  Plant response rating, Goosegrass: 100
Soybean [22]; [25]
  Plant response rating, Soybean: 50
Soybean [22]; [26]
  Plant response rating, Soybean: 100
